By inhibition is commonly meant the drop in the measured response relative to a control, in per cent. The low end stands for a weak effect, the high end for a strong effect.

The structures appear in SMILES notation. Values joined by “and” are separate entries in the source; they are usually repeats but may differ in a detail not shown here. Equal entries are not always repeated.

The target in this assay is TEAD2 (Homo sapiens (Human), UniProt Q15562). Nature of the assay: In vitro palmitoylation (TEAD2 autopalmitoylation, streptavidin blot). The class given is biochemical. Conditions: compound at 10 μM; Table 2. In a few lines: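 Recombinant GST- or His6-TEAD2 (500 ng) preincubated 15 min with compound, then 30 min with 1 μM alkyne palmitoyl-CoA; click-labelled with biotin-azide (1 h, RT). Streptavidin-HRP blot band intensity quantified after SDS-PAGE; inhibition of autopalmitoylation relative to DMSO control.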
TEAD2, sequence (Q15562 whole entry): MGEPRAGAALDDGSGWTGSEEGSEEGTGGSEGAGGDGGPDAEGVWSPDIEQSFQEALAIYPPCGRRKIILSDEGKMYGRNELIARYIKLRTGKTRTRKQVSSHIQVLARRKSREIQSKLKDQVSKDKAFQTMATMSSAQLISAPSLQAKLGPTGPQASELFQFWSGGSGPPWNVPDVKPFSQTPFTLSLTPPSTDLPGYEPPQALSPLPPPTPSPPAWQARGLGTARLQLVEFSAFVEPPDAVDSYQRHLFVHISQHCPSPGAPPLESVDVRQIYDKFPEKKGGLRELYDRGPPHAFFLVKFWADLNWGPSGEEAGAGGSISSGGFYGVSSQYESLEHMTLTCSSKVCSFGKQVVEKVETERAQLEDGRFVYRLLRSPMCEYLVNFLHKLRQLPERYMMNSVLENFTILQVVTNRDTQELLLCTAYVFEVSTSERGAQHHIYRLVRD
`CC12CC3CC(C)(C1)CC(c1ccc(NC(=O)c4cccc(Nc5ccccc5C(=O)O)c4)cc1)(C3)C2` [Compound 222] gave an inhibition at 10 µM of 45%.

In the case of `O=C(O)c1ccccc1NS(=O)(=O)c1ccc(Nc2ccc(C34CC5CC(CC(C5)C3)C4)cc2Cl)cc1` [Compound 223], 10 µM produced 100% inhibition.

Regarding `CC(C)c1ccccc1-c1ccc(NC(=O)c2cccc(Nc3ccccc3C(=O)O)c2)cc1` [Compound 224], the inhibition at 10 µM stood at 81%.

`O=C(Nc1ccc(C23CC4CC(CC(C4)C2)C3)cc1)c1ccc(C(=O)Nc2ccccc2C(=O)O)cc1` [Compound 225] gave an inhibition at 10 µM of 84%.

Consider `CC(C)N(c1ccc(N(C)c2ccc(C34CC5CC(CC(C5)C3)C4)cc2)cc1)c1ccccc1C(=O)O` [Compound 226], for which 10 µM produced 17% inhibition.

`CC12CC3CC(C)(C1)CC(c1ccc(NC(=O)c4ccc(Nc5cccc(C(=O)O)n5)cc4)cc1)(C3)C2` [Compound 227]: the inhibition at 10 µM came to 58%.

In turn, `O=C(Nc1ccccc1C(=O)O)c1ccc(Nc2ccc(C34CC5CC(CC(C5)C3)C4)cc2Br)cc1` [Compound 228] displayed an inhibition at 10 µM of 89%.

As to `O=C(Nc1ccccc1C(=O)O)c1ccc(Nc2ccc(C34CC5CC(CC(C5)C3)C4)cc2Cl)cc1` [Compound 229], the inhibition at 10 µM worked out at 91%.

Molecule `CN(c1cccc(C(=O)Nc2ccc(C34CC5CC(CC(C5)C3)C4)cc2)c1)c1ccccc1C(=O)O` [Compound 230] came in with an inhibition at 10 µM of 0%.

`CN(c1ccc(S(=O)(=O)N(C)c2ccc(C34CC5CC(CC(C5)C3)C4)cc2)cc1)c1ncccc1C(=O)O` [Compound 231] registered an inhibition at 10 µM of 0%.

In turn, `CN(c1ccc(Nc2cccc(C(=O)NC34CC5CC(CC(C5)C3)C4)c2)cc1)c1ccccc1C(=O)O` [Compound 232] yielded an inhibition at 10 µM of 33%.

In turn, `CN(c1ccc(N(C)c2ccccc2C(=O)O)cc1)c1cccc(C(=O)NC23CC4CC(CC(C4)C2)C3)c1` [Compound 233] came in with an inhibition at 10 µM of 9%.

Turning to `O=C(Nc1ccc(C23CC4CC(CC(C4)C2)C3)cc1)c1cccc(Nc2ncccc2C(=O)O)c1` [Compound 234], 10 µM produced 64% inhibition.

Molecule `O=C(O)c1cccc(Nc2cccc(C(=O)Nc3ccc(C45CC6CC(CC(C6)C4)C5)cc3)c2)c1` [Compound 235] had an inhibition at 10 µM of 84%.

With `CC(C)c1ccccc1-c1ccc(Oc2ccc(N(C)c3ccccc3C(=O)O)cc2)c(Cl)c1` [Compound 236], the inhibition at 10 µM was 62%.

`O=C(Nc1ccccc1C(=O)O)c1ccc(Oc2ccc(C34CC5CC(CC(C5)C3)C4)cc2)cc1` [Compound 237] displayed an inhibition at 10 µM of 93%.

`COc1cccc(N(C)c2ccc(N(C)c3ccc(C45CC6CC(CC(C6)C4)C5)cc3)cc2)c1C(=O)O` [Compound 238]: at 10 µM the inhibition was 100%.

`O=C(Nc1ccccc1C(=O)O)c1cccc(Nc2ccc(C34CC5CC(CC(C5)C3)C4)cc2)c1` [Compound 239]: the “% of inhibition of TEAD2 palmitoylation at 10 μM” value is listed as 100% and 10 µM produced 98% inhibition.

In the case of `O=C(O)c1cccc(NC(=O)c2cccc(Nc3ccc(C45CC6CC(CC(C6)C4)C5)cc3)c2)c1` [Compound 240], at 10 µM the inhibition was 62%.

Take `O=C(Nc1ccc(C23CC4CC(CC(C4)C2)C3)cc1Cl)c1cccc(Nc2ncccc2C(=O)O)c1` [Compound 241]: at 10 µM the inhibition was 100%.

`O=C(Nc1ccc(C23CC4CC(CC(C4)C2)C3)cc1Cl)c1cccc(Nc2ccccc2C(=O)O)c1` [Compound 242]: the “% of inhibition of TEAD2 palmitoylation at 10 μM” value was 35% and 58%.

In turn, `CN(c1ccc(CC(=O)Nc2ccccc2C(=O)O)cc1)c1ccc(C23CC4CC(CC(C4)C2)C3)cc1` [Compound 243] had an inhibition at 10 µM of 67%.

`c1ccc2c(c1)ccn2-c1ccc(Nc2ccc(C34CC5CC(CC(C5)C3)C4)cc2)cc1` [Compound 244]: at 10 µM the inhibition was 8%.

`O=C(O)/C=C/c1ccccc1Nc1ccc(Nc2ccc(C34CC5CC(CC(C5)C3)C4)cc2)cc1` [Compound 245]: testing at 10 µM gave an inhibition of 87%.

Consider `O=C(O)c1ccccc1Nc1cccc(S(=O)(=O)Nc2ccc(C34CC5CC(CC(C5)C3)C4)cc2)c1` [Compound 246], for which the inhibition at 10 µM turned out to be 99%.

For the molecule `O=C(Nc1ccc(C23CC4CC(CC(C4)C2)C3)cc1)c1ccc(Cl)c(Nc2ncccc2C(=O)O)c1` [Compound 247], 10 µM produced 95% inhibition.

In turn, `COc1cccc(Nc2cccc(C(=O)Nc3ccc(C45CC6CC(CC(C6)C4)C5)cc3)c2)c1C(=O)O` [Compound 248] gave an inhibition at 10 µM of 32%.

`COc1cc(Nc2ccc(Nc3ccc(C45CC6CC(CC(C6)C4)C5)cc3)cc2)c(C(=O)O)c(OC)c1` [Compound 249] had an inhibition at 10 µM of 1%.

In the case of `COc1ccc(C(=O)O)c(Nc2ccc(Nc3ccc(C45CC6CC(CC(C6)C4)C5)cc3)cc2)c1` [Compound 251], testing at 10 µM gave an inhibition of 27%.

`CCCCN(c1ccccc1)c1ccc(Nc2ccc(Nc3ncccc3C(=O)O)cc2)cc1` [Compound 255]: the inhibition at 10 µM is 50%.

The molecule `CCCCN(CCCC)C(=O)c1ccc(Nc2ccc(Nc3ncccc3C(=O)O)cc2)cc1` [Compound 256] yielded an inhibition at 10 µM of 46%.

On to `O=C(NC12CC3CC(CC(C3)C1)C2)c1ccc(Nc2ccc(Nc3ncccc3C(=O)O)cc2)cc1` [Compound 257], for which 10 µM produced 55% inhibition.

The molecule `CCCCN(c1ccccc1)c1ccc(Nc2ccc(Nc3ccccc3C(=O)O)cc2)c(Cl)c1` [Compound 258] displayed an inhibition at 10 µM of 0%.

Regarding `CCCCN(c1ccccc1)c1ccc(Nc2ccc(Nc3ncccc3C(=O)O)cc2)c(Cl)c1` [Compound 259], 10 µM produced 83% inhibition.

`O=C(O)c1ccccc1Nc1ccc(S(=O)(=O)Nc2ccc(C34CC5CC(CC(C5)C3)C4)cc2Cl)cc1` [Compound 260] had an inhibition at 10 µM of 71%.

`O=C(O)c1cccnc1Nc1ccc(S(=O)(=O)Nc2ccc(C34CC5CC(CC(C5)C3)C4)cc2Cl)cc1` [Compound 261] displayed an inhibition at 10 µM of 98%.

The molecule `CC12CC3CC(C)(C1)CC(c1ccc(NC(=O)c4cccc(Nc5ncccc5C(=O)O)c4)c(Cl)c1)(C3)C2` [Compound 262] gave an inhibition at 10 µM of 85%.

In turn, `CC12CC3CC(C)(C1)CC(c1ccc(NS(=O)(=O)c4ccc(Nc5ccccc5C(=O)O)cc4)c(Cl)c1)(C3)C2` [Compound 264] showed an inhibition at 10 µM of 0%.

Turning to `CC12CC3CC(C)(C1)CC(c1ccc(NS(=O)(=O)c4ccc(Nc5ncccc5C(=O)O)cc4)c(Cl)c1)(C3)C2` [Compound 265], the inhibition at 10 µM was 78%.

Molecule `CCCCN(c1ccccc1)c1ccc(NC(=O)c2cccc(Nc3ncccc3C(=O)O)c2)cc1` [Compound 266] registered an inhibition at 10 µM of 81%.

For the molecule `O=C(NCc1ccc(C23CC4CC(CC(C4)C2)C3)cc1)c1ccc(Nc2ccccc2C(=O)O)cc1` [Compound 267], 10 µM produced 36% inhibition.

Consider `O=C(NCc1ccc(C23CC4CC(CC(C4)C2)C3)cc1)c1cccc(Nc2ccccc2C(=O)O)c1` [Compound 268], for which the inhibition at 10 µM was 10%.

For `COCCOc1ccc(Nc2ccc(N(C)c3ccc(C45CC6CC(CC(C6)C4)C5)cc3)cc2)c(C(=O)O)c1` [Compound 269], testing at 10 µM gave an inhibition of 100%.

The molecule `NC(=O)c1ccccc1Nc1ccc(Nc2ccc(C34CC5CC(CC(C5)C3)C4)cc2Cl)cc1` [compound 272] returned an inhibition at 10 µM of 77%.

Take `CNC(=O)c1ccccc1Nc1ccc(Nc2ccc(C34CC5CC(CC(C5)C3)C4)cc2Cl)cc1` [compound 276]: the inhibition at 10 µM amounted to 52%.

Values taken from patent US12187722B2, “Small molecule inhibitors of TEAD transcription factors” (The General Hospital Corporation, priority 2019, dated 2025).
